In ChEMBL document CHEMBL1201862, “PubChem BioAssay data set” (2004):
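Method: 48-hour compound exposure of cells in 96-well plates, five concentrations, linear interpolation of endpoints. At the GI50, growth is halved.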 Calls of active or inactive are those of the source. Cut-off read from the data, not from the text of the source: active = GI50 up to about 1.1 µM and inactive = higher.

What was measured:
Assay in all cases: DTP human tumour cell line panel, 48 h
[1] = system: 786-0
[2] = system: A498
[3] = system: A549
[4] = system: ACHN
[5] = system: CAKI-1
[6] = system: CCRF-CEM
[7] = system: COLO 205
[8] = system: DMS-114
[9] = system: DMS-273
[10] = system: EKVX
[11] = system: HCC 2998
[12] = system: HCT-116
[13] = system: HCT-15
[14] = system: HL-60
[15] = system: HOP-18
[16] = system: HOP-62
[17] = system: HT-29
[18] = system: IGROV-1
[19] = system: K562
[20] = system: KM-20L2
[21] = system: KM12
[22] = system: LXFL 529
[23] = system: M14
[24] = system: M19-MEL
[25] = system: MOLT-4
[26] = system: Malme-3M
[27] = system: NCI-H226
[28] = system: NCI-H23
[29] = system: NCI-H460
[30] = system: NCI-H522
[31] = system: OVCAR-3
[32] = system: OVCAR-4
[33] = system: OVCAR-5
[34] = system: OVCAR-8
[35] = system: RPMI-8226
[36] = system: SF-268
[37] = system: SF-295
[38] = system: SF-539
[39] = system: SK-MEL-28
[40] = system: SK-MEL-2
[41] = system: SK-MEL-5
[42] = system: SK-OV-3
[43] = system: SN12C
[44] = system: SNB-19
[45] = system: SNB-75
[46] = system: SNB-78
[47] = system: SR
[48] = system: TK-10
[49] = system: U-251
[50] = system: UACC-257
[51] = system: UO-31
[52] = system: XF498

## COc1ccccc1N1C(=O)/C(=C/c2ccc(N(CCC#N)CCC#N)cc2C)N=C1c1cc([N+](=O)[O-])ccc1Cl
[1]
  GI50: > 100 µM (inactive)
[2]
  GI50: > 100 µM (inactive)
[3]
  GI50: > 100 µM (inactive)
[4]
  GI50: > 100 µM (inactive)
[5]
  GI50: > 100 µM (inactive)
[6]
  GI50: > 100 µM (inactive)
[7]
  GI50: > 100 µM (inactive)
[8]
  GI50: > 100 µM (inactive)
[9]
  GI50: > 100 µM (inactive)
[10]
  GI50: > 100 µM (inactive)
[11]
  GI50: > 100 µM (inactive)
[12]
  GI50: > 100 µM (inactive)
[13]
  GI50: > 100 µM
[14]
  GI50: > 100 µM (inactive)
[15]
  GI50: > 100 µM (inactive)
[16]
  GI50: > 100 µM (inactive)
[17]
  GI50: > 100 µM (inactive)
[18]
  GI50: > 100 µM (inactive)
[19]
  GI50: > 100 µM (inactive)
[20]
  GI50: > 100 µM (inactive)
[21]
  GI50: > 100 µM (inactive)
[22]
  GI50: > 100 µM (inactive)
[23]
  GI50: 68.2 µM (inactive)
[24]
  GI50: 24.2 µM (inactive)
[25]
  GI50: > 100 µM (inactive)
[26]
  GI50: > 100 µM (inactive)
[27]
  GI50: > 100 µM (inactive)
[28]
  GI50: > 100 µM (inactive)
[29]
  GI50: > 100 µM (inactive)
[30]
  GI50: > 100 µM (inactive)
[31]
  GI50: > 100 µM (inactive)
[32]
  GI50: 20.6 µM (inactive)
[33]
  GI50: > 100 µM (inactive)
[34]
  GI50: > 100 µM (inactive)
[35]
  GI50: > 100 µM (inactive)
[36]
  GI50: > 100 µM (inactive)
[37]
  GI50: > 100 µM (inactive)
[38]
  GI50: > 100 µM (inactive)
[39]
  GI50: > 100 µM (inactive)
[40]
  GI50: > 100 µM (inactive)
[41]
  GI50: > 100 µM (inactive)
[42]
  GI50: > 100 µM (inactive)
[43]
  GI50: > 100 µM (inactive)
[44]
  GI50: > 100 µM (inactive)
[45]
  GI50: > 100 µM (inactive)
[46]
  GI50: > 100 µM (inactive)
[47]
  GI50: > 100 µM (inactive)
[48]
  GI50: > 100 µM (inactive)
[49]
  GI50: > 100 µM (inactive)
[50]
  GI50: > 100 µM (inactive)
[51]
  GI50: > 100 µM (inactive)
[52]
  GI50: > 100 µM (inactive)
